{
  "source": "patent US20210069295A1",
  "about": "“GALECTINS CONTROL MTOR IN RESPONSE TO ENDOMEMBRANE DAMAGE AND PROVIDE A MECHANISM AND TARGET FOR THE TREATMENT OF AUTOPHAGY-RELATED DISEASES” (STC. UNM, priority 2017, published 2021)",
  "test_system": "mTOR",
  "assay": "mTOR localization relative to LAMP2-positive lysosomes (HC and confocal microscopy)",
  "type": "cell-based",
  "protocol": "(A) Dose-response analysis of mTOR activity in HEK293T cells treated with glycyl-L-phenylalanine 2-naphththylamide (GPN) in full medium for 1 h. mTOR activity was monitored by inununoblotting analysis of S6K1 (T389) and ULK1 (S757) phosphorylation (phosphorylated S6K (T389) and ULK1 (S757) relative to total S6K and ULK1, respectively). (B) Analysis of mTOR activity (as in A) after GPN washout. HEK293T cells were treated with 100 μM GPN for 1 h followed by 1 h washout in full medium. Data, means±SEM (n=3), **p<0.01, ANOVA. (C) Analysis of mTOR activity (as in A) in HEK293T cells treated with increasing doses of silica in full medium for 1 h. (D) HEK293T cells were treated with lysosomal damaging agents (LLOMe, Leu-Leu-OMe) for 1 h in full medium and status of acidified organelles assessed by quantifying LysoTracker Red DND-99 puncta using automated high-content imaging and analysis (HC). None-treated cells were as control (Ctrl). White masks, algorithm defined cell boundaries (primary objects); yellow masks, computer-identified LysoTracker Red puncta (target objects). Data, means±SEM, n≥3 independent experiments (500 primary objects counted per well; ≥5 wells/sample per each experiment), **p<0.01, ANOVA. (E) Analysis of mTOR activity in primary human macrophages treated with GPN. Human peripheral blood monocyte derived macrophages were treated with 100 μM GPN in full medium or starved in EBSS for 1 h, and mTOR activity measured as in A. None-treated cells were as control (Ctrl). (F) Quantification by HC of overlaps between mTOR and LAMP2 (representative images shown in FIG. S1D) in HeLa cells treated with lysosomal damaging agents for 1 h in full medium. Data, means±SEM, n≥3 independent experiments (500 primary objects counted per well; ≥5 wells/sample per each experiment) **p<0.01, ANOVA. (G) Immunofluorescence confocal microscopy visualization of mTOR localization relative to LAMP2-positive lysosomes. […] (H) Analysis of TFEB nuclear translocation in HeLa cells treated with 100 μM GPN in full medium for 1 h, and the nuclear translocation of TFEB was measured by HC (Nuclei, Hoechst 33342, blue pseudocolor; TFEB red fluorescence, Alexa-568). […] White masks, computer algorithm-defined cell boundaries (primary objects); pink masks, computer-identified nuclear TFEB based on the average intensity of Alexa-568 fluorescence. Data, means±SEM, n≥3 independent experiments (500 primary objects counted per well; ≥5 wells/sample per each experiment), **p<0.01, ANOVA. (I) HeLa cells were treated as indicated in full medium for 1 h, and LC3 puncta were quantified by HC. […] Data, means±SEM, n≥3 independent experiments (500 primary objects counted per well; ≥5 wells/sample per each experiment), **p<0.01, ANOVA. […]",
  "note": "Peptide text beside a SMILES is read from it.",
  "data": [
    {"smiles": "NCC(=O)N[C@@H](Cc1ccccc1)C(=O)Nc1ccc2ccccc2c1", "note": "[GPN, glycyl-L-phenylalanine 2-naphththylamide] (HELM PEPTIDE1{G.F.[c1ccc2cc(N[*:1])ccc2c1]}$$$$V2.0)", "values": [
      {"measurement": "mTOR localization in cells expressing RagBQ99L", "setting": "HEK293T stably expressing RagBQ99L, 100 μM GPN 1 h", "result": "remained on lysosomes"},
      {"measurement": "mTOR localization (lysosomes vs cytosol, overlap with LAMP2)", "setting": "HeLa cells, 1 h full medium", "result": "translocated from lysosomes to the cytosol"}
    ]}
  ]
}
